From article PMC10895668, “Lead Optimization of the 5-Phenylpyrazolopyrimidinone NPD-2975 toward Compounds with Improved Antitrypanosomal Efficacy” (Journal of Medicinal Chemistry, 2024)
Read-outs that look alike come from different tables or passages of the source.

How the values were obtained:
[1] = system: Trypanosoma cruzi; assay: Antiparasitic assay, T. cruzi; assay type: cell-based; details: mean ± SD, n ≥ 2, read-out: pIC50 T. cruzi (converted)
Experimental: (§1) First, they were tested in vitro against the protozoan species Trypanosoma cruzi and Leishmania infantum and the clinically relevant T. b. rhodesiense.
(§2) The antiparasitic assays were carried out exactly as described in Blaazer et al.([39]) Metabolic stability, pharmacokinetics, acute mouse infection model results were collected as described previously.[21] All animal experiments were conducted in compliance with institutional guidelines and following approval by the Ethical Committee of the University of Antwerp, Belgium [UA-ECD 2014–96]. Female Swiss mice (15–20 g), were purchased from Janvier (Le Genest Saint Isle, France). […] Animals were treated PO b.i.d. for 5 days at 25 and 50 mg/kg 31c. For the SL-RNA qPCR experiments blood was collected sublingually and subjected to erythrocyte lysis before extracting RNA with the QIAamp RNA Blood Mini kit (Qiagen). […] Small pieces of fat, brain, and spleen tissue were excised and immediately transferred to RNA later (Qiagen) and incubated overnight at 4 °C. RNA extraction was performed as instructed in the RNeasy Mini Plus Kit manual (Qiagen). The one-step SensiFAST SYBR Hi-Rox PCR kit (Bioline USA Inc., via Gentaur Belgium BVBA, Kampenhout, Belgium) was used for the PCR with the following forward and reverse primers, respectively 5′-[…]-3′ and 5′-[…]-3′. […]

[2] = system: Leishmania infantum; assay: Antiparasitic assay, L. infantum; assay type: cell-based; details: mean ± SD, n ≥ 2, read-out: pIC50 L. infantum (converted)
Experimental: as §1, §2

[3] = mouse, microsomes
[4] = system: T. b. brucei; details: for survival: n = 3
Experimental: The antiparasitic assays were carried out exactly as described in Blaazer et al.([39]) Metabolic stability, pharmacokinetics, acute mouse infection model results were collected as described previously.[21] All animal experiments were conducted in compliance with institutional guidelines and following approval by the Ethical Committee of the University of Antwerp, Belgium [UA-ECD 2014–96]. Female Swiss mice (15–20 g), were purchased from Janvier (Le Genest Saint Isle, France). […] Animals were treated PO b.i.d. for 5 days at 25 and 50 mg/kg 31c. For the SL-RNA qPCR experiments blood was collected sublingually and subjected to erythrocyte lysis before extracting RNA with the QIAamp RNA Blood Mini kit (Qiagen). […] Small pieces of fat, brain, and spleen tissue were excised and immediately transferred to RNA later (Qiagen) and incubated overnight at 4 °C. RNA extraction was performed as instructed in the RNeasy Mini Plus Kit manual (Qiagen). The one-step SensiFAST SYBR Hi-Rox PCR kit (Bioline USA Inc., via Gentaur Belgium BVBA, Kampenhout, Belgium) was used for the PCR with the following forward and reverse primers, respectively 5′-[…]-3′ and 5′-[…]-3′. An initial activation step of 10 min at 45 °C and 10 min at 95 °C was used, followed by the amplification step for 40 cycles (15 s at 95 °C, 15 s 50 °C and 15 s at 60 °C). At last, the melting curves were generated with an increment of 0.3 °C (15 s at 95 °C 1 min at 45 °C and 15 s at 95 °C). The PCR was run on the Step One Plus real-time PCR system (Applied Biosystems, California, USA). An additional qPCR was performed with the mouse housekeeping gene Eef2 to confirm successful RNA extraction.
Mice were allocated to groups of three and were infected by IP injection of 10^4T. brucei Squib 427 trypomastigotes. […] Suramin was included as a reference for T. brucei and injected IP s.i.d. for 5 days at 10 mg/kg. A PEG400 vehicle control group was also included. […] The first treatment was given 30 min prior to the artificial infection. Drug efficacy was evaluated by microscopic determination of the parasitemia in a blood drop collected from the tail vein at several time points until 63 days postinfection (dpi). […] An SL-RNA qPCR assay was performed in all surviving animals to confirm parasitological cure. For the SL-RNA qPCR, peripheral blood was subjected to erythrocyte lysis before extracting RNA with the QIAamp RNA Blood Mini kit (Qiagen). […] Small pieces of fat, brain, and spleen tissues were excised and immediately transferred to RNA later (Qiagen) and incubated overnight at 4 °C. RNA extraction was performed as instructed in the RNeasy Mini Plus Kit manual (Qiagen). […]

[5] = human, microsomes, 1 h

CC(C)(C)c1n[nH]c2c(=O)[nH]c(-c3ccc(F)cc3)nc12 [31c, 3-(tert-Butyl)-5-(4-fluorophenyl)-1,6-dihydro-7H-pyrazolo[4,3-d]pyrimidin-7-one]
IC50 [1]: > 63.1 µM | IC50 [2]: > 63.1 µM | Phase-I metabolic stability (in words) [3]: improved metabolic stability compared with 2 | parent compound remaining ([3]; 1 h): at least 69% | survival ([4]; 25 mg/kg b.i.d. PO for 5 days, one accidental death in this group): survived throughout the 60 days postinfection follow-up period without relapse | survival ([4]; 50 mg/kg b.i.d. PO for 5 days): survived throughout the 60 days postinfection follow-up period without relapse | trypanosome Spliced Leader (SL) RNA by qPCR ([4]; blood, spleen, fat and brain tissue of surviving animals): difficulty to detect trypanosome Spliced Leader (SL) RNA | parent compound remaining [5]: at least 69%
